The source of these data is patent US20220073496A1, “NOVEL QUINOLINE DERIVATIVE INHIBITOR” (Nanjing Transthera Biosciences Co., Ltd., priority 2018, published 2022).

A short description of series [1]: Stability in liver microsome of dogs. The format is in vitro ADME. As to conditions: Dog liver microsome 0.5 mg protein/mL, compound 1 μM, 37° C.; for half-life at 1 μM / microsomal CLint at 1 μM: liver microsomes. The procedure:
Assay 1: Stability assessment of the compounds of the present invention in liver microsome of mice and dogs
(§1) Test substances: the compounds of the present invention, wherein the structures and preparations thereof were as described above.
The composition of the incubation system:
Preparation of Test Substances:
An appropriate amount of the compound was accurately weighed and dissolved in DMSO to prepare a 5.0 mM stock solution. The 5.0 mM stock solution was diluted to 1.0 mM with DMSO, and finally diluted with water to a 10 μM test substance working solution for use (the DMSO content in the reaction system was 0.1%).
(1) The liver microsome (20 mg protein/mL) was taken out from the −80° C. refrigerator, pre-incubated at 37° C. with a water-bathing constant temperature vibrator for 3 minutes, and melted for use.
(2) A mixed solution of the incubation system (excluding compounds and β-NADPH) according to the above “composition of the incubation system” for the assay was prepared, and pre-incubated at 37° C. with a water-bathing constant temperature vibrator for 2 minutes.
(3) Control group (excluding β-NADPH): 30 μL of water and 30 μL of compound working solution (10 μM) were added to 240 μL of the mixed solution of the incubation system of step (2), and vortexed for 30 seconds to mix well. The total reaction volume was 300 μL. A duplicate sample was prepared. The sample was incubated at 37° C. with a water-bathing constant temperature vibrator. The timekeeping began and the sampling time points were set at 0 minute and 60 minutes.
(4) Sample group: 70 μL of β-NADPH solution (10 mM) and 70 μL of compound working solution (10 μM) were added to 560 μL of the mixed solution of step (2). The total reaction volume was 700 μL. The resulting mixture was vortexed for 30 seconds to mix well. A duplicate sample was prepared. The sample was incubated at 37° C. with a water-bathing constant temperature vibrator. The timekeeping began and the sampling time points were set at 0 minute, 5 minutes, 10 minutes, 20 minutes, 30 minutes, and 60 minutes after timekeeping.
(5) After vortexing for 3 minutes, the sample was centrifuged at 4000 rpm for 10 minutes.
(6) 50 μL of the supernatant was taken and 150 μL of water was added. The resulting mixture was vortexed to mix well, and analyzed by LC/MS/MS.
The half-life (t1/2) and clearance rate (Cl) were calculated using the following first-order kinetic formula:
Vd=1/protein content in liver microsome
Note: k was the slope of the logarithm of the remaining amount of the compound versus time, and Vd was the apparent distribution volume.

The target of series [2] is T1, Tyro-3 (h) (Homo sapiens, UniProt Q06418).
T1 construct: purchased
T1 sequence (Q06418 41-890): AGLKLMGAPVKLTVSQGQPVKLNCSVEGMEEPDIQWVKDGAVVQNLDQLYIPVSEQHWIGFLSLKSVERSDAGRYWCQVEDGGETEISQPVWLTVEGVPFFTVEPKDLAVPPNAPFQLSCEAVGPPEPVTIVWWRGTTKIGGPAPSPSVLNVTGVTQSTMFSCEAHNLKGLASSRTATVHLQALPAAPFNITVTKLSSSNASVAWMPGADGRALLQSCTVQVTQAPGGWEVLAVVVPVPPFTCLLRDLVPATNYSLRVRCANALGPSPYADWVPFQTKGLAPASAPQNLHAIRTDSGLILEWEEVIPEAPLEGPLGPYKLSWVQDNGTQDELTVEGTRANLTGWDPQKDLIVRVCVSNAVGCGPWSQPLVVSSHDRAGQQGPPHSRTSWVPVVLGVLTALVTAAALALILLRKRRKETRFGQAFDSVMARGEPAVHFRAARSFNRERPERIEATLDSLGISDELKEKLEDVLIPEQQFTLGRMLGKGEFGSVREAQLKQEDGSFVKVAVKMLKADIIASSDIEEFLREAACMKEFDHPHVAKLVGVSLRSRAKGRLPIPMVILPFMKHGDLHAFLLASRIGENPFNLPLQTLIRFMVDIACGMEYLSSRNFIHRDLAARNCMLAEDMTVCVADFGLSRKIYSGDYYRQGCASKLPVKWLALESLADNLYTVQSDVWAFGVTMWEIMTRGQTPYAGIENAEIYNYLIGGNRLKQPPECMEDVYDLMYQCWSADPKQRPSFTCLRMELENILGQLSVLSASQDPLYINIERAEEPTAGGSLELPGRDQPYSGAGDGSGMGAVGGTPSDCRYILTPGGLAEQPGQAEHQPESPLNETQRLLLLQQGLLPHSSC
Nature of the series: Enzymatic activity test, Tyro-3 (h). The format is biochemical. As to conditions: 10 μM [γ-33P]-ATP, 40 minutes, room temperature. The protocol:
Assay 3: Enzymatic Activity Test of the Compounds of the Present Invention
as §1
(1) Preparation of the Compound Stock Solution
The compound was dissolved in 100% DMSO to prepare a stock solution with a maximum concentration of 500 μM.
(2) Preparation of the Compound Working Solution
The compound stock solution was diluted to final concentrations of 500, 150, 50, 15, 5, 1.5, 0.5, 0.15 and 0.05 μM to become the compound working solutions (50×).
(3) Preparation of Different Enzyme Reaction Solutions
The Tyro3 (h) enzyme was dissolved in 8 mM MOPS (pH 7.0), 0.2 mM EDTA, 1 mM MnCl2, and 250 μM KVEKIGEGTYGVVYK to prepare an enzyme solution having a final concentration of 38 nM. The enzymatic reaction was activated by using 10 mM magnesium acetate and 10 μM [γ-^33P]-ATP to form an Mg/ATP mixed solution.
In a 384-well plate, the compound working solution was added to final concentrations of 10000, 3000, 1000, 300, 100, 30, 10, 3, and 1 nM. Then different enzyme reaction solutions prepared according to the above conditions were added. The incubation was carried out for 40 minutes at room temperature. The test was terminated by the addition of a 0.5% phosphoric acid solution. 10 μL of the reaction solution was taken and dropped to the P30 filter paper. The filter paper was washed 4 times with 0.425% phosphoric acid solution and once with methanol, and then placed on a scintillation counter. The […] IC50 values were calculated using GraphPad 5.0 software.

In general, half-life refers to how long it takes for the measured level to halve. Low readings indicate rapid decline, high ones slow decline. By microsomal CLint is commonly meant a measure of how fast metabolising enzymes remove a compound, apart from limits set by blood flow. Low readings indicate greater metabolic stability, high ones faster metabolism. In series [1], `COc1cc2nccc(Oc3ccc(NC(=O)c4nn(C5CC5)cc(-c5ccc(C)cc5)c4=O)nc3)c2cc1OC` [Compound 46, 1-cyclopropyl-N-(5-((6,7-dimethoxyquinolin-4-yl)oxy)pyridin-2-yl)-4-oxo-5-p-tolyl-1,4-dihydropyridazine-3-carboxamide] showed a half-life at 1 μM of 0.208 h and a microsomal CLint at 1 μM of 111 µL/min/mg.

In series [1], `COc1cc2nccc(Oc3cnc(NC(=O)c4cn(C5CC5)nc(-c5ccc(F)cc5)c4=O)nc3)c2cc1OC` [Compound 45, 2-cyclopropyl-N-(5-((6,7-dimethoxyquinolin-4-yl)oxy)pyrimidine-2-yl)-6-(4-fluorophenyl)-5-oxo-2,5-dihydropyridazine-4-carboxamide] registered a half-life at 1 μM of 9.63 h and a microsomal CLint at 1 μM of 2.4 µL/min/mg.

One may read the IC50 as the midpoint of a concentration-inhibition curve. Low readings indicate greater potency, high ones weaker potency. For the compound `COc1cc2nccc(Oc3cnc(NC(=O)c4cn(C(C)C)nc(-c5ccc(F)cc5)c4=O)nc3)c2cc1OC` [Compound 39, N-(5-((6,7-dimethoxyquinolin-4-yl)oxy)pyrimidine-2-yl)-6-(4-fluorophenyl)-2-isopropyl-5-oxo-2,5-dihydropyridazine-4-carboxamide], the IC50 in series [2] came out at 36 nM. Moreover, the t1/2 entry in series [1] was “→∞”.

As to `COc1cc2nccc(Oc3ccc(NC(=O)c4cn(C5CC5)cc(-c5ccc(F)cc5)c4=O)nc3)c2cc1OC` [Compound 30, N-(5-((6,7-dimethoxyquinolin-4-yl)oxy)pyridin-2-yl)-1-cyclopropyl-4-oxo-5-para-fluorophenyl-1,4-hydropyridin-3-carboxamide], the IC50 in series [2] was determined as 16 nM. In series [1], this compound returned a half-life at 1 μM of 0.938 h and a microsomal CLint at 1 μM of 24.6 µL/min/mg.

`COc1cc2nccc(Oc3ccc(NC(=O)c4nn(C5CC5)cc(-c5ccc(F)cc5)c4=O)cn3)c2cc1OC` [Compound 36]: it took 7 nM to reach half-maximal inhibition in series [2] (IC50). In series [1], this compound yielded a half-life at 1 μM of 1.93 h and an intrinsic metabolic clearance (microsomal CLint) at 1 μM of 12 µL/min/mg.

In the case of `COc1cc2nccc(Oc3ncc(NC(=O)c4nn(C5CC5)cc(-c5ccc(F)cc5)c4=O)cn3)c2cc1OC` [Compound 37, 1-cyclopropyl-N-(2-((6,7-dimethoxyquinolin-4-yl)oxy)pyrimidine-5-yl)-5-para-fluorophenyl-4-oxo-1,4-dihydropyridazine-3-carboxamide], the 50% inhibitory concentration (IC50) in series [2] came out at 12 nM. In series [1], this compound gave a half-life at 1 μM of 2.82 h and a microsomal CLint at 1 μM of 8.2 µL/min/mg.

Turning to `COc1cc2nccc(Oc3ccc(NC(=O)c4cn(C(C)C)cc(-c5ccc(C)cc5)c4=O)nc3)c2cc1OC` [Compound 1, N-(5-((6,7-dimethoxyquinolin-4-yl)oxy)pyridin-2-yl)-1-isopropyl-4-oxo-5-p-tolyl-1,4-dihydropyridin-3-carboxamide], it took 29 nM to reach half-maximal inhibition in series [2] (IC50). In series [1], this compound showed a half-life at 1 μM of 0.21 h and a microsomal CLint at 1 μM of 110 µL/min/mg.

In series [2], `COc1cc2nccc(Oc3ccc(NC(=O)c4nn(C5CC5)cc(-c5ccc(F)cc5)c4=O)nc3)c2cc1OC` [Compound 31] registered an IC50 of 7 nM. For the same compound, the t1/2 entry in series [1] is listed as “→∞”.

`COc1cc2nccc(Oc3cnc(NC(=O)c4nn(C(C)C)cc(-c5ccc(F)cc5)c4=O)nc3)c2cc1OC` [Compound 16, N-(5-((6,7-dimethoxyquinolin-4-yl)oxy)pyrimidine-2-yl)-5-(4-fluorophenyl)-1-isopropyl-4-oxo-1,4-dihydropyridazine-3-carboxamide] showed an IC50 in series [2] of 12 nM. In series [1], this compound yielded a half-life at 1 μM of 8.25 h and a microsomal CLint at 1 μM of 2.8 µL/min/mg.

In the case of `COc1cc2nccc(Oc3cnc(NC(=O)c4nn(C5CC5)cc(-c5ccc(F)cc5)c4=O)nc3)c2cc1OC` [Compound 33], 8 nM corresponded to half-maximal inhibition in series [2] (IC50). Moreover, the t1/2 entry in series [1] was “→∞”.

Consider `COc1cc2nccc(Oc3ccc(NC(=O)c4cn(C5CC5)nc(-c5ccc(F)cc5)c4=O)nc3)c2cc1OC` [Compound 42, 2-cyclopropyl-N-(5--((6,7-dimethoxyquinolin-4-yl)oxy)pyridin-2-yl)-6-(4-fluorophenyl)-5-oxo-2,5-dihydropyridazine-4-carboxamide], for which, in series [1], the t1/2 entry was “→∞”.

`COc1cc2nccc(Oc3ccc(NC(=O)c4cn(C(C)C)nc(-c5ccc(F)cc5)c4=O)nc3)c2cc1OC` [Compound 41, N-(5-((6,7-dimethoxyquinolin-4-yl)oxy)pyridin-2-yl)-6-(4-fluorophenyl)-2-isopropyl-5-oxo-2,5-dihydropyridazine-4-carboxamide] showed an IC50 in series [2] of 65 nM.

As to `COc1cc2nccc(Oc3ccc(NC(=O)c4cn(C(C)C)nc(-c5ccc(F)cc5)c4=O)cn3)c2cc1OC` [Compound 38, N-(6-((6,7-dimethoxyquinolin-4-yl)oxy)pyridin-3-yl)-6-para-fluorophenyl-2-isopropyl-5-oxo-2,5-dihydropyridazine-4-carboxamide], it took 93 nM to reach half-maximal inhibition in series [2] (IC50).

In the case of `COc1cc2nccc(Oc3ccc(NC(=O)c4nn(C(C)C)cc(-c5ccc(F)cc5)c4=O)nc3)c2cc1OC` [Compound 15, N-(5-((6,7-dimethoxyquinolin-4-yl)oxy)pyridin-2-yl)-5-(4-fluorophenyl)-1-isopropyl-4-oxo-1,4-dihydropyridazine-3-carboxamide], 13 nM corresponded to half-maximal inhibition in series [2] (IC50). In addition, in series [1], the half-life at 1 μM amounted to 3.73 h and the microsomal CLint at 1 μM amounted to 6.2 µL/min/mg.

Turning to `COc1cc2nccc(Oc3ccc(NC(=O)c4cn(C5CC5)nc(-c5ccc(F)cc5)c4=O)cn3)c2cc1OC` [Compound 43, 2-cyclopropyl-N-(6-((6,7-dimethoxyquinolin-4-yl)oxy)pyridin-3-yl)-6-para-fluorophenyl-5-oxo-2,5-dihydropyridazine-4-carboxamide], in series [1], the half-life at 1 μM was determined as 2.4 h and the microsomal CLint at 1 μM worked out at 9.6 µL/min/mg.

In series [1], `COc1cc2nccc(Oc3cnc(NC(=O)c4cn(C(C)C)cc(-c5ccc(F)cc5)c4=O)nc3)c2cc1OC` [Compound 20, N-(5-((6,7-dimethoxyquinolin-4-y)oxy)pyrimidine-2-yl)-5-(4-fluorophenyl)-1-isopropyl-4-oxo-1,4-dihydropyridin-3-carboxamide] came in with a half-life at 1 μM of 6.08 h and a microsomal CLint at 1 μM of 3.8 µL/min/mg.
